These results are taken from patent publication US9658235B2, “Pi-extended acedan derivatives, their application for two-photon microscopy imaging, and their application for two-photon microscopy imaging of amyloid-beta plaque in an alzheimer's disease animal model” (POSTECH ACADEMY-INDUSTRY FOUNDATION, priority 2015, dated 2017).

Series [1] in a line: Fluorescent properties (emission spectra, fluorescence quantum yield). It is filed as physicochemical. The method, then:
More specifically, in order to determine the fluorescent properties of two-photon absorbing fluorophores, the inventors of the present invention filled quartz cells having a path length of 1 cm with an ethanol solution (1%-DMSO included) which included the compounds 4a to 7a (R1=R2=Me) having a concentration of 10 μM to measure fluorescence spectra (fluorescence spectra were measured using a photon technical international fluorescence system). The results thereof with normalized fluorescence as a y-axis and light wavelength as an x-axis are shown in FIG. 1(B) and with fluorescence intensity as a y-axis and light wavelength as an x-axis are shown in FIG. 7.
Quartz cells having a path length of 1 cm were filled with a dichloromethane, acetonitrile, ethanol (1%-DMSO included) and PBS buffer solution (10 mM, pH 7.4, 0.1%-DMSO included) which included compound 4a (R1=R2=Me) having a concentration of 1 μM to measure fluorescence spectra.
Further, the fluorescence quantum yield was measured with respect to an ethanol solution including the compounds 4a to 8a (R1=R2=Me) having a concentration of 10 μM, and the result is shown in FIG. 6. Acedan which is mainly used was used as a comparative compound (fluorescence quantum yield, ΦF=0.52, measured in ethanol solution).

Series [2] is described as follows: Absorption properties of two-photon absorbing fluorophores. In kind it is physicochemical. The settings on record: 10 μM in ethanol solution (1%-DMSO included). The method, then:
More specifically, in order to determine the absorption properties of two-photon absorbing fluorophores, the inventors of the present invention filled quartz cells (114F-QS, Hellma Analytics) having a path length of 1 cm with an ethanol solution (1%-DMSO included) which included the compounds 4a to 7a (R1=R2=Me) having a concentration of 10 μM to measure absorption spectra. […] The absorption spectra were measured using an HP 8453 UV/Vis spectrophotometer.
Thereafter, a molar extinction coefficient (ε(Lmol^−1 cm^−1)) in a maximum absorption wavelength was calculated with respect to an ethanol solution (1%-DMSO included) which included the compounds 4a to 8a (R1=R2=Me) having a concentration of 10 μM, and the result is shown in FIG. 6. Referring to FIG. 6, it may be determined that the molar extinction coefficients (ε>11,500) for the two-photon absorbing fluorophores (particularly, compounds 4a to 8a (R1=R2=Me)) according to the embodiment of the present invention were larger than that (ε=10,700) of acedan known as a conventional two-photon absorbing fluorophore.

For series [3] the following is noted: conventional acedan; cited from earlier work.
Another series concerns SHSY5Y cells. In words: MTT cytotoxicity. It is filed as cell-based. The settings on record: 1 hour, described as low cytotoxicity. The method, then:
In order to determine the cytotoxicity of cells treated with the compound 4a (R1=R2=Me) and the compound 8a (R1=R2=Me), the metabolic capability of a formazan of SHSY5Y cells with respect to […] (MTT) was evaluated.
More specifically, the cells (100 μL/well) were prepared with the density of about 5×10^3 cells in each well on a 96-well plate. The cells were treated with the compound 4a (R1=R2=Me) and the compound 8a (R1=R2=Me) each having concentrations of 1, 20 and 50 μM, was incubated for 1 hour, were cleaned using a PBS buffer solution, and 25 μL of a MTT solution (5 mg/mL) was added to each well. After the cells were incubated at 37° C. for 2 hours, the media was removed, and a formazan crystal was dissolved in DMSO to measure absorbance using a plate reader. […] Accordingly, it may be determined that the cytotoxicity of the compound 4a (R1=R2=Me) and the compound 8a (R1=R2=Me) was low to be suitable for obtaining a two-photon microscope image in tissue and an animal model.

In another series the target is T1, amyloid beta plaque (Homo sapiens, UniProt P05067).
T1 construct: tissue The Jackson Laboratory stock no; 006554; host or cells: brain of living 5XFAD (Tg6799) mice, 13 months old, imaged through a cranial window
In words: In vivo two-photon microscope imaging of amyloid beta plaque in an Alzheimer's disease animal model. Also noted: species or system 5XFAD mice. The procedure: In order to observe the two-photon microscope image of tissue of mice treated with the compound 8a (R1=R2=Me), 5XFAD mice (13-months-old, The Jackson Laboratory, Bar Harbor, Me., USA; stock no. 006554, Tg6799) were used. An amyloid beta plaque is shown as a typical characteristic of Alzheimer's disease.
All animal experiments were performed after the approval from an animal testing ethics committee. In an open-skull craniotomy surgery, imaging was performed after treatment with the compound 8a (R1=R2=Me) and MeO-X04 which is a well-known amyloid beta plaque fluorophore. The mice were fixed on a stereotactic heating surface using Zoletil 50 (Virbac; intramuscular injection, 0.03 mL) as an anesthetic agent (Seoul, Republic of Korea, 37° C.). After a scalp and periosteum were removed, a hole having a diameter of 3 mm was formed at a distance 1 mm from the bregma and 1 mm from the sagittal suture of a skull, a bone was removed, and then a round coverslip was adhered thereto using Loctite 454. The exposed portion of the skull was covered with a dental acrylic, and dexamethasone (0.2 mg/kg) and carprofen (5 mg/kg) which are anti-inflammatory drugs were used before and after the surgery.
A product manufactured by Carl Zeiss Microscopy GmbH (Oberkochen, Germany; model no. LSM 7 MP two-photon laser scanning microscope system) was used as a two-photon microscope. […] Further, the photo-bleaching process images and the relative fluorescence intensity in […] images before and after irradiation with a light source with respect to the compound 8a (R1=R2=Me) and a complex compound of an amyloid beta plaque are shown in FIG. 18. Referring to FIG. 18, it may be determined that the fluorescence intensity of the compound 8a (R1=R2=Me) decreased about 40% when irradiated with a two-photon light source for 35 minutes.

A further series concerns the target T2, amyloid beta 42 (Aβ 42) (Homo sapiens, UniProt P05067).
T2 construct: according to the presence of amyloid beta 42 (Aβ 42)
Briefly: Fluorescence spectra according to the presence of amyloid beta 42 and BSA. In kind it is binding. The settings on record: 10 μM compound. The procedure:
Quartz cells having a path length of 1 cm were filled with a PBS buffer solution (10 mM, pH 7.4, 0.1%-DMSO included) or an artificial cerebrospinal fluid (NaCl (124 mM), KCl (3 mM), NaH2PO4 (1.25 mM), MgCl2 (1 mM), NaHCO3 (36 mM), D-gluocose (10 mM), CaCl2(2 mM), 95%-O2, 5%-CO2 (by bubbler), aCSF and 1%-DMSO included) which included the compound 8a (R1=R2=Me) having a concentration of 10 μM to measure fluorescence spectra according to the presence of amyloid beta 42 (Aβ 42) and bovine serum albumin (BSA, 20 μg/mL), and the result is shown in FIG. 4. Referring to FIG. 4, it may be determined that the fluorescence intensity of the compound 8a (R1=R2=Me) was low when an amyloid beta plaque was absent, and the fluorescence intensity of the compound 8a (R1=R2=Me) increased when an amyloid beta plaque was present. […] In order to determine the fluorescent properties (y-axis) of the compound 8a (R1=R2=Me) according to the concentration of an amyloid beta plaque (x-axis), quartz cells having a path length of 1 cm were filled with a PBS buffer solution (1%-DMSO included) which included the compound 8a (R1=R2=Me) having a concentration of 10 μM and an amyloid beta plaque (0-50 μM) to measure fluorescence spectra, and the result is shown in FIG. 14.

A short description of series [4]: Solubility in PBS buffer solution from absorption spectra. In kind it is physicochemical. The settings on record: PBS 10 mM, pH 7.4, DMSO of less than 1%; concentrations of 1, 5 and 10 μM. The procedure: Quartz cells having a path length of 1 cm were filled with a PBS buffer solution (10 mM, pH 7.4, DMSO of less than 1% included) which included the compounds 4a to 7a (R1=R2=Me) each having concentrations of 1, 2, 5 and 10 μM to measure absorption spectra.
Quartz cells having a path length of 1 cm were filled with a PBS buffer solution (10 mM, pH 7.4, DMSO of less than 1% included) which included the compound 8a (R1=R2=Me) each having concentrations of 1, 5, 10, 15 and 20 μM to measure absorption spectra.

Series [5] is described as follows: Fluorescence intensity according to pH. In kind it is physicochemical. The following applies: 10 μM, aqueous solution (1%-DMSO), pH 4 to 10, excitation 500 nm. The method, then:
In order to determine the fluorescent properties (y-axis) of the compound 8a (R1=R2=Me) according to the pH (x-axis), quartz cells having a path length of 1 cm were filled with an aqueous solution (1%-DMSO included) which has a pH in the range of 4 to 10 and included the compound 8a (R1=R2=Me) having a concentration of 10 μM to measure the fluorescence spectrum, and the result is shown in FIG. 15.

T1 sequence (P05067 672-713 limits assumed): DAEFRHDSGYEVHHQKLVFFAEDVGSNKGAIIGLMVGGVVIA
T2 sequence (P05067 672-713 limits assumed): as above

Consider `CC(=O)c1ccc2cc(N(C)C)ccc2c1` [acedan, 1-(6-dimethylaminonaphthalene-2-yl) ethanone], for which the “fluorescence quantum yield ΦF” value in series [1] (measured in ethanol solution, comparative compound) came to 0.52. Further, the “molar extinction coefficient (ε) in a maximum absorption wavelength” value in series [2] is recorded as 10,700 Lmol^−1 cm^−1. For the same compound, the “two-photon absorption efficiency value” in series [3] is listed as roughly 100 GM.

Turning to `CN(C)c1ccc2cc3c(cc2c1)OC1CCCC(=O)C1=C3` (stereo not shown) [compound 4a, 8-(dimethylamino)-2,3,4a-tetrahydro-1H-benzo[b]xanthene-1-one], the “maximum emission wavelength (λem) compared with acedan” value in series [1] (1 μM in dichloromethane, acetonitrile, ethanol and PBS buffer solution) is “longer than that of conventional acedan”. The “cytotoxicity (apoptosis)” value in the series with SHSY5Y cells (1 μM and 20 μM) is recorded as 20%.

As for `CN(C)c1ccc2cc3c(cc2c1)OCC(C=C(C#N)C#N)=C3` [compound 8a, 2-(((8-dimethylamino)-2H-benzo[g]chromene-3-yl)methylene)malononitrile], at amyloid beta plaque (30 mg/kg intraperitoneal, 13-month-old 5XFAD mice, frontal cortex, 1,000 nm, depth to 300 μm), the “visualization of amyloid beta plaque in animal model with Alzheimer's disease” value was “selectively visualize an amyloid beta plaque”. For the same compound, the “conformity of image with MeO-X04 image” value at amyloid beta plaque (30 mg/kg intraperitoneal, 24 hours before imaging, 1,000 nm, MeO-X04 10 mg/kg, 780 nm) is recorded as “significantly high”. Besides, on amyloid beta plaque (complex with amyloid beta plaque, tissue depth 50 μm, two-photon light source for 35 minutes), the “decrease of fluorescence intensity (photo-bleaching)” value is listed as “about 40%”. The “fluorescence intensity when an amyloid beta plaque was present” value at amyloid beta 42 (Aβ 42) (Aβ42 20 μM, PBS (pH 7.4) or aCSF, low when plaque absent) is listed as “increased”. Moreover, the “selective detection of amyloid beta plaque” value on amyloid beta 42 (Aβ 42) (Aβ42 versus BSA 20 μg/mL, PBS or aCSF) is reported as “selectively detected an amyloid beta plaque”. For the same compound, the “cytotoxicity (apoptosis)” value in the series with SHSY5Y cells (1 to 50 μM) stood at 20%. Further, the “solubility in a PBS buffer solution” value in series [4] was “sufficient solubility”. Moreover, in series [5], the “fluorescence intensity according to pH” value is given as “low regardless of pH”.
